Assay results published in article PMC5980577 (CPT: Pharmacometrics & Systems Pharmacology, 2018).
pKi: −log10 of the molar value. Where two headings read alike, the source gives them in different places.

Experiments:
CYP1A2 = CYP1A2 contribution to metabolism and retrograde intrinsic clearance; format: in vitro ADME, human; conditions: retrograde approach
CYP2A6 = CYP2A6 contribution to metabolism and retrograde intrinsic clearance; format: in vitro ADME, human; conditions: retrograde approach
CYP2C9 = CYP2C9 contribution to metabolism and retrograde intrinsic clearance; format: in vitro ADME, human; conditions: retrograde approach
CYP2E1 = CYP2E1 contribution to metabolism and retrograde intrinsic clearance; format: in vitro ADME, human; conditions: retrograde approach
CYP3A4 = CYP3A4 contribution to metabolism and retrograde intrinsic clearance; format: in vitro ADME, human; conditions: retrograde approach
CYP3A5 = CYP3A5 contribution to metabolism and retrograde intrinsic clearance; format: in vitro ADME, human; conditions: retrograde approach
CYP2C8 = biological target: T1, CYP2C8 (Homo sapiens, UniProt P10632); experiment: CYP2C8 reversible; format: in vitro ADME
T1 sequence (P10632 1-490): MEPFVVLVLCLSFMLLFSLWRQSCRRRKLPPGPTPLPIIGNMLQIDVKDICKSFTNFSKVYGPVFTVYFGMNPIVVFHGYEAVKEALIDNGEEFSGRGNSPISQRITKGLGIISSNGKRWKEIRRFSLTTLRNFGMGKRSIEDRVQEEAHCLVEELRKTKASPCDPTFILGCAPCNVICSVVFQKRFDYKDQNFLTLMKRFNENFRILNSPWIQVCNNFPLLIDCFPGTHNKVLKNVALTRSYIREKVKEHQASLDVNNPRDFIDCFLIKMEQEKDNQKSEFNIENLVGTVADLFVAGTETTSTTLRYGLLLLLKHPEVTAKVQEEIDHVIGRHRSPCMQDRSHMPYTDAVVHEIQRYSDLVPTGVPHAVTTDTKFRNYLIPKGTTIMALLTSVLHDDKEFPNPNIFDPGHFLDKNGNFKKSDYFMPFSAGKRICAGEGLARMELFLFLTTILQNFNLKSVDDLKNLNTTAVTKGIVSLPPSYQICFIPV

CYP3A4/5 [1] = experiment: CYP3A4/5 reversible; format: in vitro ADME; conditions: human
[2] = Fraction unbound in microsomal incubation; format: in vitro ADME; conditions: microsomes (microsomal incubation)
BCRP [3] = biological target: T2, BCRP (Homo sapiens, UniProt Q9UNQ0); experiment: BCRP inhibition, basic static model; format: in vitro ADME
T2 sequence (Q9UNQ0 1-655): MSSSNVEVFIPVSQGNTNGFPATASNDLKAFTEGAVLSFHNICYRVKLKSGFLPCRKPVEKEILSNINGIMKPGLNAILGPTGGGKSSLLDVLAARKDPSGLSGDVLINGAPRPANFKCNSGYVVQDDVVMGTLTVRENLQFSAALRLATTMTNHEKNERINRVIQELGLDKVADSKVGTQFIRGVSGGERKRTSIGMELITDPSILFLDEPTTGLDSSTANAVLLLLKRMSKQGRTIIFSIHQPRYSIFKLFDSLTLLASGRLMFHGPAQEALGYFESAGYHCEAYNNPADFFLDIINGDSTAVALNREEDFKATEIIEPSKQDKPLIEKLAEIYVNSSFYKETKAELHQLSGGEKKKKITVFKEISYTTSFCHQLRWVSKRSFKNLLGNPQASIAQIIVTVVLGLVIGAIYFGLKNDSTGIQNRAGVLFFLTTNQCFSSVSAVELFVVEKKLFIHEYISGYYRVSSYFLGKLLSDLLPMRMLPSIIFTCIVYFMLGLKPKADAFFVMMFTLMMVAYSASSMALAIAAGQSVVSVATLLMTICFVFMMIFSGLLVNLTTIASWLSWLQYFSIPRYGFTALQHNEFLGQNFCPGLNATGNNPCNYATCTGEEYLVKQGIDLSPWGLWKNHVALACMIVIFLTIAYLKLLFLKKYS

OATP1B1 = biological target: T3, OATP1B1 (Homo sapiens, UniProt Q9Y6L6); experiment: OATP1B1 inhibition, basic static model; format: in vitro ADME
T3 sequence (Q9Y6L6 1-691): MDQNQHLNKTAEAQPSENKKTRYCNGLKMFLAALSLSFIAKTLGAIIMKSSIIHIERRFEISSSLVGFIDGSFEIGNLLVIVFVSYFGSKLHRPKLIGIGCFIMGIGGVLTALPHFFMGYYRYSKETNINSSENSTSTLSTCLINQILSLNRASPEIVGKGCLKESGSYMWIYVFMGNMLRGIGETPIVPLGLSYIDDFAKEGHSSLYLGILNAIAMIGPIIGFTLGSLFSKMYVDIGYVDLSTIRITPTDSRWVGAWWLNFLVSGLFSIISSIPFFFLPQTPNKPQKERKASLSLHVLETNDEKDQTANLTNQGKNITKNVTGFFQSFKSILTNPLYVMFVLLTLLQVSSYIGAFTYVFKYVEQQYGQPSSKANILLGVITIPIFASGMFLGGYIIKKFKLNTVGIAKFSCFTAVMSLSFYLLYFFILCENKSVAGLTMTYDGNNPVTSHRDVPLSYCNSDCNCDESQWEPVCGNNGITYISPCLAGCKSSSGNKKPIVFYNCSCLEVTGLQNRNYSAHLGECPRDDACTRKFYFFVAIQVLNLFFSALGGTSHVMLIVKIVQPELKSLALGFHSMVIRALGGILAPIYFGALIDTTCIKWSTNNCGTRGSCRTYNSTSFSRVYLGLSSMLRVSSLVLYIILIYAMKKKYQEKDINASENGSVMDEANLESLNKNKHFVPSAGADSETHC

P-glycoprotein (P-gp) = P-glycoprotein (P-gp) (Homo sapiens, UniProt P08183); experiment: In vitro efflux transporter substrate study, P-gp; format: in vitro ADME
Chain of P-glycoprotein (P-gp) (P08183 whole entry): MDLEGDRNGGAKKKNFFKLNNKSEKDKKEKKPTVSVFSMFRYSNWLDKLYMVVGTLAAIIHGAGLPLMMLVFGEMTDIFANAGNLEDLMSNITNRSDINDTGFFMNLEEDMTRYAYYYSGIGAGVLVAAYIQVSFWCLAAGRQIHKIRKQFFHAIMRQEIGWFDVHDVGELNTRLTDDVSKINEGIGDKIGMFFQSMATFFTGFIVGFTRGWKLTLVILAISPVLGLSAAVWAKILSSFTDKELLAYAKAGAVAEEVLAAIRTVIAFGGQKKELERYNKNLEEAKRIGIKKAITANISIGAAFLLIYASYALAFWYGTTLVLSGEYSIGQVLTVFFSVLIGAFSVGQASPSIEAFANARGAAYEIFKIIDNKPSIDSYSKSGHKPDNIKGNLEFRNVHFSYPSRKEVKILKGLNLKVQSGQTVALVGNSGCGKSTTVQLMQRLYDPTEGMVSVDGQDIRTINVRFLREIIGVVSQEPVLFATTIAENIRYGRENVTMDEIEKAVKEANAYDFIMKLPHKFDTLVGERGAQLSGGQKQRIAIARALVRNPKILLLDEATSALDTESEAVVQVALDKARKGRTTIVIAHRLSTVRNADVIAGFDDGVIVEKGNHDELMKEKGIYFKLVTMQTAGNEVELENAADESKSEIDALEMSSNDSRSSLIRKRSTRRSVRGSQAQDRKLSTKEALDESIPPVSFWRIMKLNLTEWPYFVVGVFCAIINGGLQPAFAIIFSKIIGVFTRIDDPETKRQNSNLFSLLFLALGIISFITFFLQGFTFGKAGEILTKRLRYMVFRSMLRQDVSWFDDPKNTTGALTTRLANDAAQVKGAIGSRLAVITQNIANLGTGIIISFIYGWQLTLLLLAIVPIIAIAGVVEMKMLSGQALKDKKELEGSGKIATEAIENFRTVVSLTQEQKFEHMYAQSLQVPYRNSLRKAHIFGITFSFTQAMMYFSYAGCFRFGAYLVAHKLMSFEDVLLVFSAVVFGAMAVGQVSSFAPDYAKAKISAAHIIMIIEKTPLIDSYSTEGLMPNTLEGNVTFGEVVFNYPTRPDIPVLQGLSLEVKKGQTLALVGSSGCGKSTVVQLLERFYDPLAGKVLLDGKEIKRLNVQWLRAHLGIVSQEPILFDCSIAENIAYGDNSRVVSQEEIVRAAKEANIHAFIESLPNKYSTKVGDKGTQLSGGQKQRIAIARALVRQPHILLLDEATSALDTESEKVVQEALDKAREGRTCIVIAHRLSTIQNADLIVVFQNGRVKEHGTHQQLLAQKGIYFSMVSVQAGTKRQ

BCRP [4] = biological target: T2, BCRP; experiment: In vitro efflux transporter substrate study, BCRP; format: in vitro ADME
[5] = format: in vivo; conditions: human, plasma, oral, 80 mg
[6] = cited from earlier work
CYP3A4/5 [7] = conditions: in vitro data; cited from earlier work
[8] = doses studied 20–240 mg; cited from earlier work
[9] = multiple doses 80 mg once daily, no inducer
[10] = Circulating metabolites measured in plasma in clinical studies; format: in vivo, human; conditions: all studies

C=CC(=O)Nc1cc(Nc2nccc(-c3cn(C)c4ccccc34)n2)c(OC)cc1N(C)CCN(C)C [Osimertinib]
CYP1A2 CLint (CYP1A2): 0.520 µL/min/pmol of isoform
CYP2A6 CLint (CYP2A6): 1.749 µL/min/pmol of isoform
CYP2C9 CLint (CYP2C9): 0.479 µL/min/pmol of isoform
CYP2E1 CLint (CYP2E1): 0.111 µL/min/pmol of isoform
CYP3A4 CLint (CYP3A4): 0.731 µL/min/pmol of isoform
CYP3A5 CLint (CYP3A5): 0.210 µL/min/pmol of isoform
pKi (CYP2C8): 4.94
pKi (CYP3A4/5 [1]): 5.59
fraction unbound [2]: 0.0261
pKi (BCRP [3]): 5.70
BCRP Potential for DDI (BCRP [3]; basic static model): likely
pKi (OATP1B1): 4.66
pKi (OATP1B1; human): 4.28
substrate for P-gp (P-glycoprotein (P-gp)): substrate
substrate for BCRP (BCRP [4]): substrate
AUC [5]: 11.5 µM·h
median (range) Tmax [6]: 6 (3–24) hours
median time of maximum plasma concentration (Tmax) ([6]; oncology patients): 6 h
oral clearance ([6]; oncology patients): 14.2 L/h
volume of distribution ([6]; oncology patients): around 997 L
increase of Cmax and AUC with dose ([6]; single oral doses of 20 to 240 mg): dose proportional
fraction metabolized (fm) CYP3A (CYP3A4/5 [7]): 54%
maximum tolerated dose [8]: no maximum tolerated dose was reached
Css,max Geo.mean (range) [%CV], observed [9]: 545 (258 to 1,220) nM

C=CC(=O)Nc1cc(Nc2nccc(-c3cn(C)c4ccccc34)n2)c(OC)cc1N(C)CCNC [AZ7550]
contribution of metabolite to total drug-related exposure [10]: < 10%
